Results reported in publication PMC12040169 (PLOS Biology, 2025).

Test: in vitro
Details: human, hela cells, % viability

Structure (SMILES) | viability at 28.5 h, 10 µM
O=c1[nH]cc(-c2ccccc2)cc1CNc1ccccc1-n1ccnc1 [CBK284769] | 101%
Cc1nnnn1-c1cc(NC(=O)N(C)C(C)C)ccc1F [CBK304708] | 93.2%
COc1ccc(-c2nc(=S)c3c(n2CCCO)CCCC3)cc1 [CBK027898] | 88.7%
O=C(O)COc1ccc(N2C(=O)C(O)=C(C(=O)c3ccccc3)C2c2cccc(F)c2)cc1 (centres unmarked) [CBK287010] | 96.8%
Cc1ccc(NC(=O)c2cnc3sccn3c2=O)cc1 [CBK287448] | 93.1%
O=C(Nc1ccccc1N1CCN(C(=O)c2ccc(Cl)cc2)CC1)c1ccc(-c2cccc([N+](=O)[O-])c2)o1 [CBK266398] | 93.3%
COc1ccc(-c2noc(CSc3nnc(-c4c[nH]c5ccccc45)n3C)n2)cc1OC [CBK268644] | 88.8%
Cc1cc(C)c(CNC(=O)N(C)C(C)c2ccncn2)cn1 (centres unmarked) [CBK307192] | 93.4%
Cc1cc(C)c(NC(N)=O)c(C)c1 [CBK086399] | 105%
CC(=O)c1ccc(CN2CCCN(S(=O)(=O)c3ccc(C(=O)c4ccccc4)cc3)CC2)cc1 [CBK062764] | 109%
Cc1[nH]c2ccccc2c1C(=O)CSc1nc2ccccc2o1 [CBK266339] | 100%
Cc1[nH]c2ccccc2c1/C=N/c1ccc(/N=C/c2c(C)[nH]c3ccccc23)cc1 [CBK261226] | 83.4%
O=C1Nc2ccc(-c3ccsc3)cc2C1(O)O [CBK000421] | 84.5%
CCCN(C)Cc1ccc(-c2cn(CC(=O)NCc3ccc4c(c3)OC(F)(F)O4)nn2)cc1 [CBK166361] | 101%
N#Cc1ccc(Oc2cccc(/N=C/c3ccc(/C=N/c4cccc(Oc5ccc(C#N)cc5)c4)cc3)c2)cc1 [CBK261157] | 93.7%
CC(C)Nc1nc(NC(C)C)nc(Oc2ccc(C=O)cc2)n1 [CBK265043] | 111%
Cc1nc(C(F)(F)F)ccc1C(=O)N1CCCC1c1ccc[nH]1 (centres unmarked) [CBK306328] | 107%
NS(=O)(=O)c1ccc(C(=O)N2CCC3(CCN(C(=O)c4cc(F)c(F)cc4F)C3)C2)cc1 (centres unmarked) [CBK131385] | 104%
COc1cc(Nc2nc(-c3ccc4[nH]ccc4c3)cn3ccnc23)cc(OC)c1OC [CBK038069] | 95.5%
Cc1ccc(S(=O)(=O)N(CC(=O)NC2CC3CCC2C3)c2cc(Cl)cc(Cl)c2)cc1 (centres unmarked) [CBK263995] | 85.3%
COc1cc(C(=O)N2CCC3(CC2)CC(=O)c2cc(NC(C)=O)ccc2O3)nc2c(OC)cccc12 [CBK170664] | 122%

Structure (SMILES) | viability at 28.5 h, 10 µM
CC(CCCC(C)(C)O)Nc1cncc(-c2cccc(C(=O)O)c2)n1 (centres unmarked) [CBK065489] | 103%
CCCN1C(C)=NS(=O)(=O)c2cc(C(=O)O)ccc21 [CBK287251] | 92.4%
C=CCn1c(-c2sc(NC(=O)c3[nH]c4c(c3C)C(=O)CC(C)(C)C4)nc2C)n[nH]c1=S [CBK297757] | 91%
Nc1nonc1-c1nc2ccccc2n1Cc1ccc(-c2nn[nH]n2)cc1 [CBK267648] | 91.3%
O=C(C1CC1)N1CCC(n2nc(-c3cccs3)ccc2=O)CC1 [CBK284213] | 94.7%
COc1ccc(Oc2c(C)n[nH]c2-c2ccc(O)cc2O)cc1 [CBK288239] | 96%
O=C(CCSc1ccccc1)Nc1ccc(S(=O)(=O)N2CCOCC2)cc1 [CBK266568] | 114%
c1csc(COc2nccnc2-c2cc3ccccc3s2)c1 [CBK106786] | 99.5%
CS(=O)(=O)NC1CCN(c2nc(C(F)(F)F)nc3ccsc23)CC1 [CBK304592] | 109%
CCOc1ccc(NC(=O)C2C3c4ccccc4C(c4ccccc43)C2C(=O)O)cc1 (centres unmarked) [CBK261544] | 102%
CCOC(=O)C1=C(C)NC(=O)NC1c1cccs1 (centres unmarked) [CBK086430] | 78%
Cn1c2c(c3ccccc31)CCOC21CCN(Cc2ccc(OC(F)F)cc2)CC1 [CBK039975] | 95.8%
Cc1cc(COc2nc3ccccc3nc2N2CCCC2)no1 [CBK115768] | 109%
N#Cc1ccccc1CSc1nc(N)cc(O)n1 [CBK267967] | 98.3%
CCOC(=O)c1ccc(Nc2nnc3nc(C)cc(C)n23)cc1 [CBK267600] | 93.1%
Cc1c(C(=O)Nc2cccc(C(F)(F)F)c2)sc2nc(-c3ccccc3)cn12 [CBK294408] | 87.9%
CC(C)NC(=O)Cn1ccc2ccnc(-c3cccs3)c21 [CBK284732] | 91.3%
CCOC(=O)C1(Cc2cc(-c3ccc(F)cc3)no2)CCCNC1 (centres unmarked) [CBK284579] | 84%
Cc1ccc(OCCn2c(SCCC(=O)O)nc3ccccc32)cc1 [CBK262561] | 84.7%
O=C(O)c1ccc(NC(S)=NC(NC(=O)c2ccco2)C(Cl)(Cl)Cl)cc1 (centres unmarked) [CBK261025] | 96.2%
O=C(COc1ccc(Cl)cc1Cl)OCCNC1=NS(=O)(=O)c2ccccc21 [CBK264905] | 110%

Structure (SMILES) | viability at 28.5 h, 10 µM
CC(C)NC(=O)c1cc(C2CCN(C(=O)CCOc3ccccc3F)C2)nc2ccccc12 (centres unmarked) [CBK285917] | 101%
COc1cccc(NC(=O)c2ccc(-c3cc(C(F)(F)F)cc(C(F)(F)F)c3)nc2N(C)C)c1 [CBK106028] | 119%
O=C(CN1CCCC2(CCN(C(=O)c3ccoc3)C2)C1)Nc1ccc(F)c(Cl)c1 (centres unmarked) [CBK132822] | 92.7%
CC(C)(C)c1ccc(C(=O)Nc2ccccc2C(=O)Nc2ccc(C(=O)O)cc2)cc1 [CBK268626] | 89.1%
Cc1sc(NC(=O)c2ccc(F)cc2Cl)c(C(=O)NCc2cccnc2)c1C [CBK270319] | 82.9%
CCn1c2c(c(=O)[nH]c1=O)C(c1ccccc1)C1=C(COC1=O)N2 (centres unmarked) [CBK287704] | 95.6%
Cc1ccc(NC(=O)CC2Nc3ccccc3OC2=O)cc1C (centres unmarked) [CBK270214] | 81.5%
Cn1nccc1CN1CCNC(=O)C1c1ccccc1C(F)(F)F (centres unmarked) [CBK306422] | 86.9%
CC(C)[C@H](CO)Nc1nc(-c2ccccc2)cnc1N [CBK063933] | 107%
C/C(=N\O)c1ccc(S(N)(=O)=O)cc1 [CBK007871] | 100%
O=C(O)c1ccc(CN2C(=O)c3ccc(C(=O)c4ccc(C(=O)O)cc4)cc3C2=O)cc1 [CBK262831] | 102%
O=[N+]([O-])c1ccccc1S(=O)(=O)Nc1ccc(S(=O)(=O)Nc2ccccc2)cc1 [CBK264796] | 106%
Clc1cncc(OCCc2c[nH]c3ccccc23)n1 [CBK176027] | 65.2%
CN(C)Cc1ccccc1C(O)c1ccccc1 (centres unmarked) [CBK261277] | 94.4%
CCN(CC)CCNC(=O)c1ccc(Nc2cncc(-c3ccc(O)cc3)n2)c(OC)c1 [CBK122659] | 82.2%
COc1ccc2[nH]cc(CCNC(=O)c3ccc(Cl)c(Cl)c3)c2c1 [CBK115870] | 107%
O=S(=O)(Nc1nccnc1N1CCN(c2ccccc2)CC1)c1ccc(F)cc1 [CBK048706] | 94.2%
CCCC(C)c1cn(CCc2cc(O)nc(C)n2)nn1 (centres unmarked) [CBK306871] | 93.8%
COC(=O)c1cccc(Oc2nc(OC)cc(OC)n2)c1 [CBK092219] | 66.1%
FC(F)(F)c1cccc(CN2CCN(CCc3ccccc3)CC2)c1 [CBK126421] | 99.7%
O=C(NC/C=C/c1cn(C2OC(CO)C(O)C2O)c(=O)[nH]c1=O)C(F)(F)F (centres unmarked) [CBK201298] | 104%

Structure (SMILES) | viability at 28.5 h, 10 µM
O=C(CN1CCOCC1)Nc1ccc(S(=O)(=O)N2CCCC2)cc1 [CBK268468] | 103%
O=C(CNS(=O)(=O)c1cc(F)c(Br)cc1F)N1CCOCC1 [CBK042216] | 107%
Cc1ccc(-c2noc(CN3CCN(c4ccccc4)CC3)n2)cc1 [CBK265924] | 101%
Nc1ncc(-c2cccc(/C=C/C(=O)O)c2)nc1N1CCN(CCO)CC1 [CBK063665] | 98.7%
CC(=O)c1c2c(c(N3CCN(C#N)CC3)[nH]c1=S)CC(C)(C)OC2 [CBK018622] | 86.3%
O=C(/C=C/c1ccc(Cl)cc1Cl)Nc1sc2c(c1C(=O)NCc1cccnc1)CCCC2 [CBK265497] | 99.3%
O=C(CSCc1ccc(Cl)cc1Cl)Nc1ccc(Oc2ccc3c(c2)C(=O)NC3=O)cc1 [CBK266779] | 92.2%
COC(C(=O)NCc1sc(-c2ccccc2)nc1C)c1ccccc1 (centres unmarked) [CBK092362] | 93.1%
Cc1nn(CC(=O)N2CCCCCC2)c(=O)c2cc3sccc3n12 [CBK284084] | 80.4%
COc1nccnc1-c1ccc(C)c(C)c1 [CBK106853] | 88.7%
CCOC(=O)Cc1ccc(Nc2cc(-c3ccc(N(C)C)cc3)ncn2)cc1 [CBK090712] | 31.6%
COc1ccc2nc(Nc3nc4c(s3)C(=O)CC(C)(C)C4)sc2c1 [CBK287481] | 90.5%
O=C(OCCC1SC(NC2CC3C=CC2C3)=NC1=O)c1cc(C(F)(F)F)cc(C(F)(F)F)c1 (centres unmarked) [CBK056857T] | 100%
c1coc(CNc2cncc(-c3cccc4ccccc34)n2)c1 [CBK065573] | 115%
C=C(C)Cn1c(SCC(=O)O)nnc1-c1ccccc1 [CBK262737] | 91.9%
c1ccc(Cc2csc(C3CN4CCCC4CO3)n2)cc1 (centres unmarked) [CBK304202] | 90.2%
CCn1cc(C(=O)O)c(=O)c2cc(F)c(N3CCN(C(=S)Nc4ccc5c(c4)OCO5)CC3)cc21 [CBK268027] | 83.1%
Cc1ccc(CN(CCCn2ccnc2)Cc2ccccc2O)s1 [CBK283135] | 103%
Cc1noc(C)c1C(=O)Nc1cnc(-c2cccc(C(F)(F)F)c2)c(-c2cccnc2)n1 [CBK036727] | 96.8%

Same assay, conditions: human, hela cells, % viability, bulk resorufin, single well

Structure (SMILES) | viability at 28.5 h, 10 µM
CONC(=O)c1nn(Cc2ccc(C)cc2)c2ccccc12 [CBK047848] | 79.6%
COc1ccc(OC(=O)Nc2nn(Cc3ccc(C#N)cc3)c3ccc(C)cc23)cc1 [CBK048654] | 74.4%
Cc1ccc(Cn2nc(C(=O)Nc3ccccn3)c3ccccc32)cc1 [CBK047839] | 105%
O=C(O)CCn1cc(C=C2C(=O)NC(=S)NC2=O)c(-c2cccc([N+](=O)[O-])c2)n1 [CBK265309] | 116%
